According to a melting point compilation (Tetko et al.; mined from patent text by program, amines drawn as free bases though some values may be those of a salt):

Row | Structure (SMILES) | melting point [°C]
1 | CC1(C)Oc2ccc(CO)cc2[C@@H](N2CCCC2=O)[C@@H]1O (relative stereo) | 175 to 178
2 | O=C(Cc1ccccc1Cl)N[C@H]1C[C@H](C(=O)O)Nc2cc(Cl)cc(Cl)c21 (relative stereo) | 244 to 245
3 | CCCC(=O)C1=C(O)CC2(CCC(C)CC2)OC1=O (centres undefined) | 60 to 63
4 | CCCc1nn(CC)c(C(N)=O)c1N | 81 to 83
5 | COc1ccc(O)c(Br)c1 | 37 to 38
6 | CCc1cc(OC)c(-c2nc(N)sc2CCC2CCCCC2)cc1OC | 88
7 | COC(=O)CNC(=O)C1CSSC1 | 73 to 75
8 | CNCC1Cc2cc(Cl)cc(-c3cccc(OC)c3OC)c2O1 (centres undefined) | 105 to 107
9 | Cc1nc(-c2cccnc2)sc1-c1ccnc(Nc2cccc(CN)c2)n1 | 211 to 213
10 | CSc1ccc(NC2=C(C#N)CSC2)c([N+](=O)[O-])c1 | 141 to 142
11 | NCC(CC(=O)O)C1CCC1 (centres undefined) | 115 to 117
12 | Cc1cc(Cl)cc(C#N)c1 | 132 to 133
13 | ON=C1CSc2ccccc2CN1 | 208 to 210
14 | NC(=O)[C@H]1CCCCCC[C@H](CS)C(=O)N1 (relative stereo) | 185 to 192
15 | O=C1NC(=O)c2c1c(-c1ccccc1)cc1c2c2cc(O)ccc2n1CC(O)CO (centres undefined) | 290 to 295
16 | O=C1CCSc2c(O)cccc21 | 225 to 232
17 | NNC(=O)c1cccc2nnsc12 | 270 to 272
18 | CC(=O)N[C@@H](CSC(C)=O)C(=O)NCCSC(C)=O | 153 to 154
19 | O=C(Cc1ccc(Cl)c(Cl)c1)N1CCC2(CC1CN1CCCC1)SCCS2 (centres undefined) | 119 to 120
20 | CCCCN1CNC(=O)NC1=O | 205 to 207
21 | COc1ccc(C2(C)Cc3cc(OCC(=O)O)c(Cl)c(Cl)c3C2=O)cc1 (centres undefined) | 173 to 175
22 | C=C(CN(C)C)C(O)c1ncc2c(c1O)COC2c1ccccc1 (centres undefined) | 210 to 215

Results, then the compound that gave them:

Row | melting point [°C] | Structure (SMILES)
23 | 238 to 239 | O=C(O)CCc1c(C(=O)O)[nH]c2cc(-c3ccccc3)ccc12
24 | 129 to 130 | CC(C)Cc1nc2ccc(Br)cc2c(-c2ccccc2)c1CN
25 | 210 to 212 | O=C(Nc1ccc(F)cc1)c1ccc(C2COC(c3c(F)cccc3F)=N2)cc1 (centres undefined)
26 | 66 to 77 | O=C(Cc1ccccc1)NCC(=O)c1ccccc1
27 | 186 to 189 | CSc1csc(NC(=O)c2ccc(OC(C)=O)cc2)n1
28 | 170 to 172 | CCCSc1ncc(C(C)C(=O)O)n1Cc1ccccc1Cl (centres undefined)
29 | 156 to 157 | CCCn1c(=O)c2c(nc(/C=C/c3ccc(OC(=O)c4ccccc4)c(OC)c3)n2C)n(CCC)c1=O
30 | 51 to 52 | CCCC(CCCCCN1C(=O)c2ccccc2C1=O)(C(=O)OCC)C(=O)OCC
31 | 71.2 | COc1ccccc1CNC1CCN(C2CCN(C(=O)c3cc(C)cc(C)c3)C(Cc3ccccc3)C2)CC1 (centres undefined)
32 | 84 to 86 | CN(C)CCCn1cc(-c2ccccc2)sc1=Nc1ccccc1
33 | 258 to 264 | CCCN1C(=O)N2C(=NCC2c2ccccc2)c2[nH]cnc21 (centres undefined)
34 | 51 to 53 | CCC1(c2cccc(OCc3ccccc3)c2)COC(C)(C)O1 (centres undefined)
35 | 159 to 161 | CCOc1cc2cc(CO)c(CO)c(-c3ccncc3)c2cc1OCC
36 | 116 | O=C(O)/C=C/c1cccc(-c2nc(=O)c3ccccc3s2)n1
37 | 158 to 163 | Clc1cccc(CNc2n[nH]c3ncnc(Nc4cccc(Cl)c4)c23)c1
38 | 162 to 164 | NC(=S)NN=C(CCC(=O)NCc1ccccc1)c1ccccc1
39 | 172 to 175 | Cc1ccc(C(=O)n2c(C)c(C(C)C(=O)O)c3cc4c(cc32)OCO4)cc1 (centres undefined)
40 | 25 | C=Cc1ccc([C@@H](C)N=Cc2cccc(C)n2)cc1
41 | 103 to 105 | C[Si](C)(C)C#CCn1nc(-c2ccc(F)c(Br)c2)ncc1=O
42 | 139 to 142 | Cc1ccc(C2=NCCN2C(=O)Nc2ccccc2)cc1C
43 | 206 to 207 | O=C(O)c1cc2c3ccccc3n(-c3ccccc3)c2s1
44 | 52 | CCCCCCc1ccc(/C(Cl)=C/c2ccc(Br)cc2)cc1
